Laboratory results published in patent US20110262508A1, “ANTIMICROBIAL COMPOSITIONS, FORMULATIONS AND USES THEREOF” (priority 2007, published 2011).
Peptide text beside a SMILES is read from it.

Tests used:
[1] = tested on: A. baumannii; format: cell-based
Description: Broth dilution methods are e.g., described by Lorian (2007) In: Antibiotics in Laboratory Medicine, Fifth Edition; and In: Clinical and Laboratory Standards Institute, CLSI (formerly NCCLS), In: Methods for Dilution Antimicrobial Susceptibility Tests for Bacteria that Grow Aerobically—Approved Standard—Seventh Edition, CLSI document M7-A7, Villanova, Pa. (NCCLS; January 2006; Vol. 26 No. 2); and In: Clinical and Laboratory Standards Institute, CLSI (formerly NCCLS), Performance Standards for Antimicrobial Susceptibility Testing, Seventeenth Informational Supplement, M100-S17, Vol 27 No. 1 January 2007, all of which are incorporated herein by reference.
The present inventors used such methods to quantitate activity in vitro of antimicrobial peptides of the invention against bacterial isolates, including laboratory strains and 50 clinical isolates of A. baumannii, and S. aureus ATCC Accession No. 2992. Briefly, small volumes of broth are dispensed in sterile, plastic microtiter trays, and 100 μl of serially-diluted antimicrobial peptide (0.1-64 μg) and 100 μl test organism (approximately 1×10^5 C.F.U.), are added. Following aerobic incubation overnight at 35±2° C. Control samples lacked peptide (Growth control), or lacked peptide and bacteria (Sterility control). The trays were examined visually and the minimal inhibitory concentration (MIC) of peptide required to inhibit bacterial growth were determined. The minimum bactericidal concentration (MBC) was estimated by sub-culturing the wells for which no bacterial growth was visible to the naked eye, to thereby determine a concentration of antimicrobial that reduces the original inoculum by at least about 99.9%.

[2] = tested on: A. baumannii ATCC 19606, Acinetobacter spp. ATCC 17903, Acinetobacter spp. ATCC 19004, E. coli BL21, S. aureus, S. typhimurium AroA, P. aeruginosa, P. …; test: Antibacterial spectrum over the serial dilution panel (Table 6); format: cell-based; conditions: summary of Table 6
Description: Synthetic peptides were tested for their ability to inhibit bacterial growth in liquid culture. The peptides were added at a concentration of between about 5 μM and about 10 μM to individual wells of 96-deep-well dishes that contained liquid growth media freshly inoculated with one of the following bacteria: A. baumannii ATCC Accession No. 19606, Acinetobacter spp. ATCC 17903, Acinetobacter spp. ATCC 19004, Escherichia coli strain BL21, S. aureus, S. typhimurium strain AroA, P. aeruginosa or P. pneumotropica. After 5-6 hours of shaking at 37° C., growth was measured as absorbance at 595 nm. As a control, cultures were grown in the presence of 0.1% acetonitrile (i.e., the concentration present in 10 μM peptide).

SMILES: CC[C@H](C)[C@H](NC(=O)[C@H](CCCCN)NC(=O)[C@H](CO)NC(=O)[C@H](CC(C)C)NC(=O)[C@@H](N)CC(C)C)C(=O)N[C@@H](CCCNC(=N)N)C(=O)N[C@@H](C)C(=O)N[C@@H](CC(C)C)C(=O)N[C@@H](CCCNC(=N)N)C(=O)N[C@@H](CCCNC(=N)N)C(=O)N[C@@H](CCCNC(=N)N)C(=O)N[C@@H](CCCNC(=N)N)C(=O)N[C@@H](Cc1ccccc1)C(=O)NCC(=O)N[C@@H](CCC(N)=O)C(=O)N[C@@H](CO)C(=O)N[C@@H](CC(=O)O)C(=O)N[C@@H](CCCCN)C(=O)N[C@@H](CCCNC(=N)N)C(=O)N[C@H](C(=O)N[C@@H](CO)C(=O)N[C@@H](Cc1ccc(O)cc1)C(=O)N[C@@H](CCCCN)C(=O)O)[C@@H](C)CC [Ac16] (H-LLSKIRALRRRRFGQSDKRISYK-OH)
- MIC (μM) for non-amidated Peptide [1]: 10 to 15 µM
- selectively inhibited growth of A. baumannii ATCC Accession No. 19606, Acinetobacter spp. ATCC 17903 and Acinetobacter spp. ATCC 19004 [2]: selectively inhibited growth

SMILES: CC[C@H](C)[C@H](NC(=O)[C@H](Cc1c[nH]c2ccccc12)NC(=O)[C@H](CC(=O)O)NC(=O)[C@H](CO)NC(=O)[C@H](CS)NC(=O)[C@H](CC(C)C)NC(=O)[C@H](CC(C)C)NC(=O)[C@H](C)NC(=O)[C@H](CS)NC(=O)[C@H](CCCNC(=N)N)NC(=O)[C@H](CC(C)C)NC(=O)[C@H](CCCNC(=N)N)NC(=O)[C@H](C)NC(=O)CN)C(=O)N[C@H](C(=O)N[C@@H](CO)C(=O)N[C@@H](CS)C(=O)N[C@@H](CCCNC(=N)N)C(=O)N[C@@H](CC(C)C)C(=O)N[C@@H](CC(C)C)C(=O)NCC(=O)N[C@H](C(=O)N[C@@H](CC(N)=O)C(=O)O)C(C)C)C(C)C [Ac40] (H-GARLRCALLCSDWIVSCRLLGVN-OH; N-terminus and C-terminus assumed)
- MIC (μM) for amidated peptide [1]: 10 to 15 µM
- MIC (μM) for non-amidated Peptide [1]: 10 to 15 µM
- selectively inhibited growth of A. baumannii ATCC Accession No. 19606, Acinetobacter spp. ATCC 17903, Acinetobacter spp. ATCC 19004, and S. aureus [2]: selectively inhibited growth

SMILES: CC(C)C[C@H](NC(=O)[C@H](CCCCN)NC(=O)[C@H](CCCNC(=N)N)NC(=O)[C@H](CC(C)C)NC(=O)[C@H](CCC(=O)O)NC(=O)[C@H](CCC(=O)O)NC(=O)[C@H](Cc1ccc(O)cc1)NC(=O)[C@H](CCC(N)=O)NC(=O)[C@H](C)NC(=O)CN)C(=O)N[C@@H](CO)C(=O)N[C@@H](CCCCN)C(=O)NCC(=O)N[C@@H](CC(=O)O)C(=O)N[C@@H](Cc1c[nH]cn1)C(=O)N[C@@H](CC(C)C)C(=O)N[C@H](C(=O)N[C@@H](CCCCN)C(=O)N[C@@H](CC(C)C)C(=O)N[C@@H](CCCCN)C(=O)N[C@H](C(=O)N[C@@H](CO)C(=O)N1CCC[C@H]1C(=O)O)[C@@H](C)O)C(C)C [Ac98] (H-GAQYEELRKLSKGDHLVKLKTSP-OH; N-terminus and C-terminus assumed)
- selectively inhibited growth of S. aureus [2]: selectively inhibited growth

SMILES: CC(C)C[C@H](NC(=O)CNC(=O)[C@@H]1CCCN1C(=O)[C@H](Cc1c[nH]c2ccccc12)NC(=O)[C@H](CCCCN)NC(=O)[C@H](CCCCN)NC(=O)[C@H](CCCNC(=N)N)NC(=O)[C@H](C)NC(=O)[C@H](CCC(N)=O)NC(=O)[C@@H]1CCCN1)C(=O)NCC(=O)N[C@@H](CC(N)=O)C(=O)N[C@@H](CCC(=O)O)C(=O)N[C@H](C(=O)N[C@H](C(=O)N[C@@H](C)C(=O)N[C@@H](CCCNC(=N)N)C(=O)N[C@@H](CC(C)C)C(=O)N[C@@H](CC(C)C)C(=O)N[C@H](C(=O)N[C@H](C(=O)N[C@@H](CO)C(=O)N[C@@H](C)C(=O)O)C(C)C)[C@@H](C)O)[C@@H](C)O)C(C)C [Ac100] (H-PQARKKWPGLGNEVTARLLTVSA-OH; N-terminus and C-terminus assumed)
- selectively inhibited growth of S. aureus [2]: selectively inhibited growth
